Measured values: patent US11786494B2, “Methods of modulation of branched chain acids and uses thereof” (Baylor College of Medicine, priority 2009, dated 2023)
“Also recorded” adds a separate entry of the source.

Legend:
[1] = tested on: plasma branched chain amino acids (BCAA) and branched chain ketoacids (BCKA); experiment: Clinical protocol: plasma BCAA and BCKA before and after sodium phenylbutyrate; type: in vivo, human; conditions: day 3 vs baseline, listed as sodium phenylbutyrate
From the text: FIG. 1 is a graph representing levels of branched chain amino acids (BCAAs) in control subjects (N=3) at baseline and then after treatment with sodium phenylbutyrate (PBA). Abbreviations: Ile=Isoleucine; Leu=Leucine; Val=Valine. *: p<0.05. Values are average of three time points after two days of treatment. Study subjects received PBA at the dose of 10 gram/m^2/day divided in four equal doses every six hours for three days. The subjects received a constant protein intake of 0.6 grams/kg/day as a combination of BCAA-free formula and whole protein. Measurements were performed on day three at three different time points separated by 30 minutes in the fed state. Note that y-axis represents concentrations comparing baseline to three days of treatment.
FIG. 2 is a graph representing levels of branched chain ketoacids (BCKAs) in control subjects (N=3) at baseline and then after treatment with sodium phenylbutyrate. Abbreviations: KMV=α-keto-β-methylvalerate; KIC=α-ketoisocaproate; KIV=α-ketoisovalerate. *: p<0.05. Values are average of three time points after two days of treatment. Subjects were all on the same steady state protein intake for three days at testing. Study subjects received PBA at the dose of 10 gram/m^2/day divided in four equal doses every six hours for three days. The subjects received a constant protein intake of 0.6 grams/kg/day as a combination of BCAA-free formula and whole protein. Measurements were performed on day three at three different time points separated by 30 minutes in the fed state. Note that y-axis represents concentrations comparing baseline to three days of treatment.
FIG. 3 is a graph representing levels of branched chain amino acids (BCAAs) in MSUD patients (N=5) at baseline and then after treatment with sodium phenylbutyrate. Values are average of three time points after two days of treatment. Patients were all on steady state protein intake for three days at testing. Study subjects received PBA at the dose of 10 gram/m^2/day divided in four equal doses every six hours for three days. The subjects received a constant protein intake of 0.6 grams/kg/day as a combination of BCAA-free formula and whole protein. Measurements were performed on day three at three different time points separated by 30 minutes in the fed state. Abbreviations: Ile=Isoleucine; Leu=Leucine; Val=Valine. *: p<0.05. Note that y-axis represents concentrations comparing baseline to three days of treatment.
FIG. 4 is a graph representing levels of branched chain ketoacids (BCKAs) in MSUD patients (N=5) at baseline and then after treatment with sodium phenylbutyrate. Values are average of three time points after two days of treatment. Patients were all on steady state protein intake for three days at testing. […]

[2] = tested on: phosphorylated E1-α subunit of BCKDC; experiment: Western blot of liver extract for phosphorylated E1 subunit of BCKDC; type: in vivo, C57B6 mice; conditions: 50 mg/kg/day oral gavage in 3 administrations, 3 days, N=5 per group, p<0.05
Description: FIG. 5 is a Western blot analysis of liver extract using an antibody against the phosphorylated form of the E1 subunit of BCKDC from C57B6 mice (N=5 mice per group) treated with phenylbutyrate or placebo. To investigate the effect and mechanism of phenylbutyrate on the BCKD, mice (n=5) were treated with saline or 50 mg/kg/day of phenylbutyrate divided into three administrations for three consecutive days and after three days of treatment they were sacrificed for analyses. Proteins were extracted from mouse livers and a western blot performed using an anti-phosphoserine BCKDC antibody, the anti-BCKDC-E1 antibody, and the anti-BCKDC-E2 antibody. Each lane corresponds to the liver extract from an independent mouse (from #1 to #3).
A post-translational mechanism of regulation of the activity of BCKDC by covalent modification by phosphorylation. In order to investigate the effect and mechanism of phenylbutyrate-mediated increased activity of BCKDC, Buphenyl® or saline were given orally to C57B6 mice (N=5 mice per group) by gavage at the dose of 50 mg/kg/day divided into 3 administrations for 3 consecutive days. After three days of treatment the animals were sacrificed to harvest the liver samples. Proteins were extracted from mouse livers by homogenizing the tissue in a buffer containing 5% SDS and 0.0625 M TrisHCl. […]

[3] = MSUD patients (N=5), three of five responders, 10 gram/m^2/day
[4] = healthy control subjects (N=3), 10 gram/m^2/day in four doses

## O=C([O-])CCCc1ccccc1.[Na+] [phenylbutyrate, sodium 4-phenylbutyrate]
[1]; [3]
  plasma BCAA levels: reduced; also recorded: decreased their BCAAs
  plasma BCKA levels: significantly decreased; also recorded: decreased their BCKAs
[1]; [4]
  plasma BCAA levels (isoleucine, leucine, valine): reduced; also recorded: significantly decreased levels
  plasma BCKA levels (KMV, KIC, KIV): reduced; also recorded: decreased their BCKAs
[2]
  phosphorylated E1-α subunit of BCKDC in liver vs saline treated mice: significant reduction; also recorded: significantly reduced
